Test: xn = mol fraction of the nth substance listed
Conditions: 100 kPa

CC[n+]1ccn(C)c1.O=S(=O)([O-])C(F)(F)C(F)F + CCCC[n+]1ccc(C)cc1.O=S(=O)([N-]S(=O)(=O)C(F)(F)F)C(F)(F)F
viscosity [mPa·s]
Conditions | x2 = 0.0504 | x2 = 0.112 | x2 = 0.2211 | x2 = 0.3324 | x2 = 0.4432 | x2 = 0.5529 | x2 = 0.6631 | x2 = 0.774 | x2 = 0.8828 | x2 = 0.9517
293.15 K | 115.9 | 113.9 | – | – | – | 95.1 | 89.1 | – | 78.9 | 75.3
303.15 K | 72 | 70.8 | 69.5 | – | 62.7 | 59.4 | 55.8 | 52.9 | 49.7 | –
313.15 K | – | – | 45.7 | 43.8 | – | 39.5 | – | 35.4 | 33.2 | 31.7
323.15 K | 33.3 | 32.8 | 31.7 | 30.6 | – | 27.6 | 26.5 | 25 | 23.4 | 22.4
333.15 K | 24.3 | 24 | 23.2 | 22.4 | – | – | – | 18.4 | 17.3 | 16.6
343.15 K | – | 18 | 17.3 | 16.8 | 16.2 | 15.2 | 14.7 | 13.9 | 13 | 12.5
353.15 K | 14.2 | 14 | 13.5 | 13.1 | 12.6 | 11.9 | 11.6 | – | – | 9.9

CCCC[n+]1ccc(C)cc1.O=S(=O)([N-]S(=O)(=O)C(F)(F)F)C(F)(F)F + CCOS(=O)(=O)[O-].CC[n+]1ccn(C)c1
viscosity [mPa·s]
Conditions | x2 = 0.0475 | x2 = 0.1177 | x2 = 0.226 | x2 = 0.3341 | x2 = 0.4479 | x2 = 0.558 | x2 = 0.6663 | x2 = 0.7776 | x2 = 0.886 | x2 = 0.9487
293.15 K | 78.7 | – | 100.8 | – | 132.9 | – | 150.8 | 149.6 | 141.6 | 133.5
303.15 K | 49.3 | 54 | 62.2 | 70.8 | 79.8 | – | 90.1 | – | 85.5 | 81.1
313.15 K | 33 | 36 | 41.1 | – | 51.7 | 55.9 | – | 57.9 | 55.7 | –
323.15 K | 23.3 | 25.3 | 28.6 | 31.9 | 35.5 | 38.2 | – | – | 38.3 | 36.8
333.15 K | 17.2 | – | 20.9 | – | 25.5 | – | – | 28.4 | 27.7 | 26.7
343.15 K | – | – | 15.6 | 17.1 | 18.9 | 20.2 | – | – | 20.6 | –
353.15 K | – | 11 | – | 13.3 | 14.5 | 15.5 | 16.1 | – | 15.9 | 15.4

— a compilation of properties of binary mixtures (doi:10.1016/j.jct.2014.10.022)
